Test results taken from publication PMC12708883 (Frontiers in Microbiology, 2025).

Columns and labels:
YhjE [1] = target: YhjE (Escherichia coli, UniProt P37643, T276I); assay: radiolabelled uptake into whole cells, […] min; type: cell-based; details: 50 μM substrate, M9 + 0.2% glucose, 37 °C; B2933 with mutant pBR-yhjE; labelled compound
YhjE [2] = target: YhjE (Escherichia coli, UniProt P37643, S271F/V290M); assay: radiolabelled uptake into whole cells, […] min; type: cell-based; details: 50 μM substrate, M9 + 0.2% glucose, 37 °C; B2933 with mutant pBR-yhjE; labelled compound
YhjE (Escherichia coli, UniProt P37643, S271F/V290M), sequence (P37643 whole entry S271F/V290M): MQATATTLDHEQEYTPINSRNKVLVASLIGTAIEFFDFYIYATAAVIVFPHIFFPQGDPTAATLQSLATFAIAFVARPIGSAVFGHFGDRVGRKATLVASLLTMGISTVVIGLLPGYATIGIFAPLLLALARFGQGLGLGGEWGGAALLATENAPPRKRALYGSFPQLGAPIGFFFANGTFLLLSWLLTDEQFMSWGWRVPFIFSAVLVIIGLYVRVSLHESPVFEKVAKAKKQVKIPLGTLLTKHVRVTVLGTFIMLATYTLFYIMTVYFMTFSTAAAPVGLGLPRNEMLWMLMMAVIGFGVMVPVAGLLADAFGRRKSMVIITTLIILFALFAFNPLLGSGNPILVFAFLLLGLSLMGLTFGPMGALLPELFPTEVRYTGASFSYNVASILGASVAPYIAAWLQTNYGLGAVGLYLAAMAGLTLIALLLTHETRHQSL

YhjE [3] = target: YhjE (Escherichia coli, UniProt P37643, T273I); assay: radiolabelled uptake into whole cells, […] min; type: cell-based; details: 50 μM substrate, M9 + 0.2% glucose, 37 °C; B2933 with mutant pBR-yhjE; labelled compound
YhjE (Escherichia coli, UniProt P37643, T273I), sequence (P37643 whole entry T273I): as the sequence (P37643 whole entry S271F/V290M) above, with F271S, T273I, M290V counted along it

YhjE [4] = target: YhjE (Escherichia coli, UniProt P37643, M359I); assay: radiolabelled uptake into whole cells, […] min; type: cell-based; details: 50 μM substrate, M9 + 0.2% glucose, 37 °C; B2933 with mutant pBR-yhjE; labelled compound
YhjE (Escherichia coli, UniProt P37643, M359I), sequence (P37643 whole entry M359I): as the sequence (P37643 whole entry S271F/V290M) above, with F271S, M290V, M359I counted along it

YhjE [5] = target: YhjE (Escherichia coli, UniProt P37643, P55S); assay: radiolabelled uptake into whole cells, […] min; type: cell-based; details: 50 μM substrate, M9 + 0.2% glucose, 37 °C; B2933 with mutant pBR-yhjE; labelled compound
YhjE (Escherichia coli, UniProt P37643, P55S), sequence (P37643 whole entry P55S): as the sequence (P37643 whole entry S271F/V290M) above, with P55S, F271S, M290V counted along it

YhjE [6] = target: T1, YhjE (Escherichia coli, UniProt P37643); assay: inhibition of L-[3H]isoleucine uptake into whole cells, […] min; type: cell-based; details: 50 μM L-[3H]isoleucine, M9 + 0.2% glucose, 37 °C; B2394[pBR-yhjE]; single replicate
T1 sequence (P37643 1-440): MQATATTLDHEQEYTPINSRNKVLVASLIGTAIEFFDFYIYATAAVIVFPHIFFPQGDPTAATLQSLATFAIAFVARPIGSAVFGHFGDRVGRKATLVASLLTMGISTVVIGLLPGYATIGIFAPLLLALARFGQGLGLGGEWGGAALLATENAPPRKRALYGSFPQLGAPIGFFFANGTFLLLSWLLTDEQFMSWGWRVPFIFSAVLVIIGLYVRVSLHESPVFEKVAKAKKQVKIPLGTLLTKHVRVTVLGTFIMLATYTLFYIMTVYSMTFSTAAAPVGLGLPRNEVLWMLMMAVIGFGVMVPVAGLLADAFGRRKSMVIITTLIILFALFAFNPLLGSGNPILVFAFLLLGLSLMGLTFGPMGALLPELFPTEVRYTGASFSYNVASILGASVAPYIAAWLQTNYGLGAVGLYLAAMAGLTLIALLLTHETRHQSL

BrnQ = target: T2, BrnQ (Escherichia coli, UniProt P0AD99); assay: radiolabelled uptake into whole cells, […] min; type: cell-based; details: sole carrier strain, M9 + 0.2% glucose, 37 °C; labelled compound
T2 construct: native chromosomal gene, sole carrier in livKHMGF yhjE double mutant cells
T2 sequence (P0AD99 whole entry): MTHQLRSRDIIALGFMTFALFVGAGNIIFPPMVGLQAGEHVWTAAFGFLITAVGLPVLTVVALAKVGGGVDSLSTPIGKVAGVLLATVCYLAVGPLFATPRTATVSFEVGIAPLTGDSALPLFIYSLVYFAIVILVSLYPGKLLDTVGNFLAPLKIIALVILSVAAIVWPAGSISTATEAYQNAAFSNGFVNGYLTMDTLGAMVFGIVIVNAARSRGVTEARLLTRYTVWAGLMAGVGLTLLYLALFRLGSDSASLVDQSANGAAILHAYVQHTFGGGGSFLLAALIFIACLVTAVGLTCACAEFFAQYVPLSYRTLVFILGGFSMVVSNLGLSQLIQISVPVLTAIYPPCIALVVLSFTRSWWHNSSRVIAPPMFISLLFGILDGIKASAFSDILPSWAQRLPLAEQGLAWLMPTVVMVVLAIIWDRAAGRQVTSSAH

LIV-I (LivJFGHM) = target: T3, LIV-I (LivJFGHM) (Escherichia coli, UniProt P0AD96); assay: radiolabelled uptake into whole cells, […] min; type: cell-based; details: sole carrier strain, M9 + 0.2% glucose, 37 °C; labelled compound
T3 construct: gene livJ; native chromosomal genes, sole carrier in brnQ yhjE double mutant cells
T3 sequence (P0AD96 24-367): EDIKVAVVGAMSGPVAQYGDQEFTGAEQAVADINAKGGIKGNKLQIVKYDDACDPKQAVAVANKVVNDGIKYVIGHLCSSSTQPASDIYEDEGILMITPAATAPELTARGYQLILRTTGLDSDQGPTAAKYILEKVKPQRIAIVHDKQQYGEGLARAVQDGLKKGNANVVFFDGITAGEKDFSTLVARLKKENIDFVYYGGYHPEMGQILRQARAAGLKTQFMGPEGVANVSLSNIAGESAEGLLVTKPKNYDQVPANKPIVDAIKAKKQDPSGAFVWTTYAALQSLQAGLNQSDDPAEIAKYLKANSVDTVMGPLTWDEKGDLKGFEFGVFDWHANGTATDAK
T3 sequence (P0AEX7 whole entry partner): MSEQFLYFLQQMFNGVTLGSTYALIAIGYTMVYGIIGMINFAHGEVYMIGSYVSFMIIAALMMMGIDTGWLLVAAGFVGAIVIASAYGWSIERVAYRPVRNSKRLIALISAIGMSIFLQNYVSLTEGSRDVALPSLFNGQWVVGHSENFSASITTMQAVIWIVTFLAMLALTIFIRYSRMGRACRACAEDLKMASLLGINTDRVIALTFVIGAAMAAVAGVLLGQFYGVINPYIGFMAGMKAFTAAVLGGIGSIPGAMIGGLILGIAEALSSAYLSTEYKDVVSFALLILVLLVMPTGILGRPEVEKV
T3 sequence (P22729 whole entry partner): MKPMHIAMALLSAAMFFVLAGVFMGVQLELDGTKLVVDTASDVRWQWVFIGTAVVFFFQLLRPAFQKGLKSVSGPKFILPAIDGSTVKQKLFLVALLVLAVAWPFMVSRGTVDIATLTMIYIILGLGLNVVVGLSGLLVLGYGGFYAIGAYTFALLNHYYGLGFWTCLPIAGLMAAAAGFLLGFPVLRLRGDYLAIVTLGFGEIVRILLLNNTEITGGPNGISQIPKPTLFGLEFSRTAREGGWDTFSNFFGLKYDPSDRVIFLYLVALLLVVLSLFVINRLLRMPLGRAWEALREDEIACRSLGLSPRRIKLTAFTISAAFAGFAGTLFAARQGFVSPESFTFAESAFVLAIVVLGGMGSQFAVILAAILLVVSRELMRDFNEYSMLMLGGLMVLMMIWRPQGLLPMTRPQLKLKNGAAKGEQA
T3 sequence (P22731 whole entry partner): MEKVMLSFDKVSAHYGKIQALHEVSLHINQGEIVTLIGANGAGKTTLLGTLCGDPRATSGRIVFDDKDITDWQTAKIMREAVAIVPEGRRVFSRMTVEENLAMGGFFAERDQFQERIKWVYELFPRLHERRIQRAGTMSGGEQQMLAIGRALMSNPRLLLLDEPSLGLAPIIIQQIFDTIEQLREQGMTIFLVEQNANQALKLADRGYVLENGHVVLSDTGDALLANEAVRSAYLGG
T3 sequence (P0A9S7 whole entry partner): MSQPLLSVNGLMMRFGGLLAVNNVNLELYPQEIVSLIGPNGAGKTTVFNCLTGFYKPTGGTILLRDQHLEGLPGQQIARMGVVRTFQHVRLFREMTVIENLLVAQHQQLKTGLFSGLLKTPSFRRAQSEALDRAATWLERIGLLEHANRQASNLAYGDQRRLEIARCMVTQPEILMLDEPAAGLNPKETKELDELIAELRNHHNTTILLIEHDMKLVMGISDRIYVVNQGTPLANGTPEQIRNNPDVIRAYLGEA

[7] = substrate: CC(C)[C@H](N)C(=O)O; assay: radiolabelled uptake into whole cells; type: cell-based, Escherichia coli; details: M9 + 0.2% glucose, 37 °C, B2933[pUC-yhjE], proton symport, labelled compound
[8] = substrate: CC[C@H](C)[C@H](N)C(=O)O; assay: radiolabelled uptake into whole cells; type: cell-based, Escherichia coli; details: M9 + 0.2% glucose, 37 °C, B2933[pUC-yhjE], proton symport, labelled compound

YhjE (Escherichia coli, UniProt P37643, T276I), sequence (P37643 whole entry T276I): as the sequence (P37643 whole entry S271F/V290M) above, with F271S, T276I, M290V counted along it

## CC(C)C[C@H](N)C(=O)O [L-leucine]
YhjE [1]
  uptake rate: The lowest effect was observed for the T276I substitution
YhjE [2]
  uptake rate: In every case, L-leucine uptake was elevated relative to cells harboring the wild-type pBR-yhjE
YhjE [3]
  uptake rate: In every case, L-leucine uptake was elevated relative to cells harboring the wild-type pBR-yhjE
YhjE [4]
  uptake rate: YhjE M359I variant exhibited L-leucine transport activity more than twofold higher than the wild type
YhjE [5]
  uptake rate: In every case, L-leucine uptake was elevated relative to cells harboring the wild-type pBR-yhjE

## N[C@@H](Cc1ccc(O)cc1)C(=O)O [L-tyrosine]
YhjE [6]
  % inhibition at 30-fold molar excess: L-tyrosine and L-cysteine, which are structurally unrelated to branched-chain amino acids, produced pronounced inhibitory effects

## N[C@@H](CS)C(=O)O [L-cysteine]
YhjE [6]
  % inhibition at 30-fold molar excess: L-tyrosine and L-cysteine, which are structurally unrelated to branched-chain amino acids, produced pronounced inhibitory effects

## CC(C)[C@H](N)C(=O)O [L-valine]
BrnQ
  uptake rate: Comparison of L-valine–specific activity of YhjE, LIV-I, and BrnQ

## CC[C@H](C)[C@H](N)C(=O)O [L-isoleucine]
YhjE [1]
  uptake rate: L-isoleucine uptake was concomitantly reduced
LIV-I (LivJFGHM)
  uptake rate: Comparison of L-isoleucine–specific activity of YhjE, LIV-I, and BrnQ
YhjE [2]
  uptake rate: L-isoleucine uptake was concomitantly reduced
BrnQ
  uptake rate: Comparison of L-isoleucine–specific activity of YhjE, LIV-I, and BrnQ
YhjE [3]
  uptake rate: L-isoleucine uptake was concomitantly reduced
YhjE [4]
  uptake rate: L-isoleucine uptake was concomitantly reduced
YhjE [5]
  uptake rate: L-isoleucine uptake was concomitantly reduced

B1: YhjE (Escherichia coli K-12) (protein)
chain: MQATATTLDHEQEYTPINSRNKVLVASLIGTAIEFFDFYIYATAAVIVFPHIFFPQGDPTAATLQSLATFAIAFVARPIGSAVFGHFGDRVGRKATLVASLLTMGISTVVIGLLPGYATIGIFAPLLLALARFGQGLGLGGEWGGAALLATENAPPRKRALYGSFPQLGAPIGFFFANGTFLLLSWLLTDEQFMSWGWRVPFIFSAVLVIIGLYVRVSLHESPVFEKVAKAKKQVKIPLGTLLTKHVRVTVLGTFIMLATYTLFYIMTVYSMTFSTAAAPVGLGLPRNEVLWMLMMAVIGFGVMVPVAGLLADAFGRRKSMVIITTLIILFALFAFNPLLGSGNPILVFAFLLLGLSLMGLTFGPMGALLPELFPTEVRYTGASFSYNVASILGASVAPYIAAWLQTNYGLGAVGLYLAAMAGLTLIALLLTHETRHQSL
[7]
  Km: 86.7 µM
[8]
  Km: 70.5 µM
